Tests used:
NKG2A+/NKG2C− NK cells = test: NK cell activation markers in NKG2A+/NKG2C- NK cells incubated with peptide and K562 expressing HLA-E (inhibition); type: cell-based, human; conditions: for percentage of CCL3+ NK cells / percentage of CD107a+ NK cells / percentage of IFNG+ NK cells / percentage of TNF+ NK cells: NKG2A+/NKG2C- NK cells, K562/HLA-E
Description: (§1) A human immortalized myelogenous leukemia cell line (K562), which expresses HLA-E was incubated with novel peptides (Table 1) derived from the human proteome or human cytomegalovirus proteome. […] Controls assessments were also performed using NKG2A−/NKG2C− cells (Tables 10-13). Inhibition was indicated by a decrease in percent cells positive for cell surface markers, while activation was indicated by an increase in percent cells positive for cell surface markers.

NKG2A−/NKG2C− NK cells = test: NK cell activation markers in control NKG2A-/NKG2C- NK cells incubated with peptide and K562 expressing HLA-E; type: cell-based, human
Description: as §1

HLA-E = target: T1, HLA-E (Homo sapiens, UniProt P13747); test: HLA-E surface stabilization assay with RMA-S/HLA-E cells; type: cell-based; conditions: 30 μM peptide, 16 hours, anti-HLA-E antibody
T1 construct: expressed in transfected cells; host or cells: RMA-S/HLA-E cells (antigen processing-defective lymphoma cell line)
Description: HLA-E surface expression was assessed by measuring geometric mean fluorescence intensity (GeoMFI) in RMA-S cells following immunofluorescence staining with an anti-HLA-E antibody (Table 14). Increased GeoMFI was indicative of increased HLA-E surface expression stability following novel peptide exposures (FIG. 3).

NKG2A−/NKG2C+ NK cells = test: NK cell activation markers in NKG2A-/NKG2C+ NK cells incubated with peptide and K562 expressing HLA-E (activation); type: cell-based, human; conditions: for effect on NKG2A−/NKG2C+ NK cell activation (in words): K562 expressing HLA-E, CD107a, IFNG, TNF, CCL3; for percentage of CCL3+ NK cells / percentage of CD107+ NK cells / percentage of IFNG+ NK cells / percentage of TNF+ NK cells: NKG2A-/NKG2C+ NK cells, K562/HLA-E
Description: as §1

- HLA-E surface expression stability (GeoMFI) (HLA-E; Trial 1): 3203 GeoMFI
- HLA-E surface expression stability (GeoMFI) (HLA-E; Trial 2): 3535 GeoMFI
- HLA-E surface expression stability (GeoMFI) (HLA-E; Trial 3): 3903 GeoMFI
- HLA-E surface expression stability (GeoMFI) (HLA-E; Trial 4): 4464 GeoMFI
Sequence: TLPERTLYL [human7, peptide ECEL1 269-277 derived from the human proteome]
- effect on NKG2A+/NKG2C− NK cell inhibition (in words) (NKG2A+/NKG2C− NK cells; K562 expressing HLA-E, CD107a, IFNG, TNF, CCL3): strong inhibitory
- percentage of CCL3+ NK cells (NKG2A+/NKG2C− NK cells; Trial 1): 1.37%
- percentage of CD107a+ NK cells (NKG2A+/NKG2C− NK cells; Trial 1): 0.52%
- percentage of IFNG+ NK cells (NKG2A+/NKG2C− NK cells; Trial 1): 0.13%
- percentage of TNF+ NK cells (NKG2A+/NKG2C− NK cells; Trial 1): 0.05%
- percentage of CCL3+ NK cells (NKG2A+/NKG2C− NK cells; Trial 2): 1.85%
- percentage of CD107a+ NK cells (NKG2A+/NKG2C− NK cells; Trial 2): 0.72%
- percentage of IFNG+ NK cells (NKG2A+/NKG2C− NK cells; Trial 2): 0.21%
- percentage of TNF+ NK cells (NKG2A+/NKG2C− NK cells; Trial 2): 0.11%
- percentage of CCL3+ NK cells (NKG2A+/NKG2C− NK cells; Trial 3): 1.62%
- percentage of CD107a+ NK cells (NKG2A+/NKG2C− NK cells; Trial 3): 0.59%
- percentage of IFNG+ NK cells (NKG2A+/NKG2C− NK cells; Trial 3): 0.49%
- percentage of TNF+ NK cells (NKG2A+/NKG2C− NK cells; Trial 3): 0.1%
- percentage of CCL3+ NK cells (NKG2A+/NKG2C− NK cells; Trial 4): 0.64%
- percentage of CD107a+ NK cells (NKG2A+/NKG2C− NK cells; Trial 4): 0.71%
- percentage of IFNG+ NK cells (NKG2A+/NKG2C− NK cells; Trial 4): 0.16%
- percentage of TNF+ NK cells (NKG2A+/NKG2C− NK cells; Trial 4): 0.08%
- percentage of CCL3+ NK cells (NKG2A+/NKG2C− NK cells; Trial 5): 1.26%
- percentage of CD107a+ NK cells (NKG2A+/NKG2C− NK cells; Trial 5): 0.64%
- percentage of IFNG+ NK cells (NKG2A+/NKG2C− NK cells; Trial 5): 0.28%
- percentage of TNF+ NK cells (NKG2A+/NKG2C− NK cells; Trial 5): 0.18%
- percentage of CCL3+ NK cells (NKG2A+/NKG2C− NK cells; Trial 6): 2.68%
- percentage of CD107a+ NK cells (NKG2A+/NKG2C− NK cells; Trial 6): 1.96%
- percentage of IFNG+ NK cells (NKG2A+/NKG2C− NK cells; Trial 6): 0.67%
- percentage of TNF+ NK cells (NKG2A+/NKG2C− NK cells; Trial 6): 0.38%
- percentage CCL3+ NK cells (NKG2A−/NKG2C− NK cells; Trial 1): 30.7%
- percentage CD107+ NK cells (NKG2A−/NKG2C− NK cells; Trial 1): 21.8%
- percentage TNF+ NK cells (NKG2A−/NKG2C− NK cells; Trial 1): 4.13%
- percentage of IFNG+ NK cells (NKG2A−/NKG2C− NK cells; Trial 1): 13.3%
- percentage CCL3+ NK cells (NKG2A−/NKG2C− NK cells; Trial 2): 49.5%
- percentage CD107+ NK cells (NKG2A−/NKG2C− NK cells; Trial 2): 27.4%
- percentage TNF+ NK cells (NKG2A−/NKG2C− NK cells; Trial 2): 7.88%
- percentage of IFNG+ NK cells (NKG2A−/NKG2C− NK cells; Trial 2): 23.4%
- percentage CCL3+ NK cells (NKG2A−/NKG2C− NK cells; Trial 3): 47%
- percentage CD107+ NK cells (NKG2A−/NKG2C− NK cells; Trial 3): 41.8%
- percentage TNF+ NK cells (NKG2A−/NKG2C− NK cells; Trial 3): 14.2%
- percentage of IFNG+ NK cells (NKG2A−/NKG2C− NK cells; Trial 3): 34.9%
- percentage CCL3+ NK cells (NKG2A−/NKG2C− NK cells; Trial 4): 27.4%
- percentage CD107+ NK cells (NKG2A−/NKG2C− NK cells; Trial 4): 24%
- percentage TNF+ NK cells (NKG2A−/NKG2C− NK cells; Trial 4): 7.92%
- percentage of IFNG+ NK cells (NKG2A−/NKG2C− NK cells; Trial 4): 16.4%
- percentage CCL3+ NK cells (NKG2A−/NKG2C− NK cells; Trial 5): 22.9%
- percentage CD107+ NK cells (NKG2A−/NKG2C− NK cells; Trial 5): 17.2%
- percentage TNF+ NK cells (NKG2A−/NKG2C− NK cells; Trial 5): 5.21%
- percentage of IFNG+ NK cells (NKG2A−/NKG2C− NK cells; Trial 5): 12.7%
- percentage CCL3+ NK cells (NKG2A−/NKG2C− NK cells; Trial 6): 22.6%
- percentage CD107+ NK cells (NKG2A−/NKG2C− NK cells; Trial 6): 20.5%
- percentage TNF+ NK cells (NKG2A−/NKG2C− NK cells; Trial 6): 4.34%
- percentage of IFNG+ NK cells (NKG2A−/NKG2C− NK cells; Trial 6): 10.9%
- effect on NKG2A−/NKG2C+ NK cell activation (in words) (NKG2A−/NKG2C+ NK cells; listed as SEQ ID NO. 11): strong activating effects
- effect on NKG2A−/NKG2C+ NK cell activation (in words) (NKG2A−/NKG2C+ NK cells; listed as h7): strong inhibitory and activating effects
- percentage of CCL3+ NK cells (NKG2A−/NKG2C+ NK cells; Trial 1): 77%
- percentage of CD107+ NK cells (NKG2A−/NKG2C+ NK cells; Trial 1): 76.2%
- percentage of IFNG+ NK cells (NKG2A−/NKG2C+ NK cells; Trial 1): 66.6%
- percentage of TNF+ NK cells (NKG2A−/NKG2C+ NK cells; Trial 1): 54.5%
- percentage of CCL3+ NK cells (NKG2A−/NKG2C+ NK cells; Trial 2): 92.4%
- percentage of CD107+ NK cells (NKG2A−/NKG2C+ NK cells; Trial 2): 89.5%
- percentage of IFNG+ NK cells (NKG2A−/NKG2C+ NK cells; Trial 2): 87.3%
- percentage of TNF+ NK cells (NKG2A−/NKG2C+ NK cells; Trial 2): 79.9%
- percentage of CCL3+ NK cells (NKG2A−/NKG2C+ NK cells; Trial 3): 87.5%
- percentage of CD107+ NK cells (NKG2A−/NKG2C+ NK cells; Trial 3): 87.7%
- percentage of IFNG+ NK cells (NKG2A−/NKG2C+ NK cells; Trial 3): 79.8%
- percentage of TNF+ NK cells (NKG2A−/NKG2C+ NK cells; Trial 3): 70.1%
- percentage of CCL3+ NK cells (NKG2A−/NKG2C+ NK cells; Trial 4): 61.5%
- percentage of CD107+ NK cells (NKG2A−/NKG2C+ NK cells; Trial 4): 63.2%
- percentage of IFNG+ NK cells (NKG2A−/NKG2C+ NK cells; Trial 4): 54.1%
- percentage of TNF+ NK cells (NKG2A−/NKG2C+ NK cells; Trial 4): 47.8%
- percentage of CCL3+ NK cells (NKG2A−/NKG2C+ NK cells; Trial 5): 77.3%
- percentage of CD107+ NK cells (NKG2A−/NKG2C+ NK cells; Trial 5): 76.5%
- percentage of IFNG+ NK cells (NKG2A−/NKG2C+ NK cells; Trial 5): 70%
- percentage of TNF+ NK cells (NKG2A−/NKG2C+ NK cells; Trial 5): 66.1%
- percentage of CCL3+ NK cells (NKG2A−/NKG2C+ NK cells; Trial 6): 55.6%
- percentage of CD107+ NK cells (NKG2A−/NKG2C+ NK cells; Trial 6): 55.3%
- percentage of IFNG+ NK cells (NKG2A−/NKG2C+ NK cells; Trial 6): 45.4%
- percentage of TNF+ NK cells (NKG2A−/NKG2C+ NK cells; Trial 6): 37.8%

Source: patent publication US20240092835A1, “NOVEL PEPTIDES CAPABLE OF ALTERING NK CELL ACTIVITY” (Massachusetts Institute of Technology, priority 2022, published 2024)
